Results from PMC11945486, “TAS1R2/TAS1R3 Single-Nucleotide Polymorphisms Affect Sweet Taste Receptor Activation by Sweeteners: The SWEET Project” (Nutrients, 2025).
No end group written: not given here.

T1: human TAS1R2-WT/TAS1R3-S551N (Homo sapiens, UniProt Q7RTX0+Q8TE23, S551N)
T1 construct: expressed in transfected cells; host or cells: HEK293T stably expressing Gα16gust44
T1 sequence (Q8TE23 20-839): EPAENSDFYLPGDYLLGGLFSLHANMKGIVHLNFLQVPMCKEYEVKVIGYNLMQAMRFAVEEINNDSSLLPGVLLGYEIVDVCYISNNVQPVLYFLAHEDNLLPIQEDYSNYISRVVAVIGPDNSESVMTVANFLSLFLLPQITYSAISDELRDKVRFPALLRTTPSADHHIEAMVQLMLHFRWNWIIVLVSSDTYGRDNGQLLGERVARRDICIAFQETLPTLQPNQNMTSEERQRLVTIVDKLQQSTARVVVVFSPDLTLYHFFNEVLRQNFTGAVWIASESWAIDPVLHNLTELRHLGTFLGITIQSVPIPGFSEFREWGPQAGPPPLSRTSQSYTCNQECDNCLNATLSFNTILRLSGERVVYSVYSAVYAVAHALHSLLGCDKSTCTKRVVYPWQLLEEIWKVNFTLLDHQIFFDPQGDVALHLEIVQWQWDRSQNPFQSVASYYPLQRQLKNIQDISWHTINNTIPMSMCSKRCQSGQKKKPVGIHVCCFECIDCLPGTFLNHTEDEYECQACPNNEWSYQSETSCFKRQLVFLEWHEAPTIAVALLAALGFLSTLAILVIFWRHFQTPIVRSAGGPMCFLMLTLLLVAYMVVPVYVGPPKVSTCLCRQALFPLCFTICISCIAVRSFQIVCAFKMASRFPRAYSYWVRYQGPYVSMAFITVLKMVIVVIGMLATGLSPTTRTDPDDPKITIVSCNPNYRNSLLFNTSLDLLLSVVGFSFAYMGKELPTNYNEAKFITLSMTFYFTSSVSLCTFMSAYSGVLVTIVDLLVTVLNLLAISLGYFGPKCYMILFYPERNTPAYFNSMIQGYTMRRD
T1 sequence (Q7RTX0 21-852 S551N): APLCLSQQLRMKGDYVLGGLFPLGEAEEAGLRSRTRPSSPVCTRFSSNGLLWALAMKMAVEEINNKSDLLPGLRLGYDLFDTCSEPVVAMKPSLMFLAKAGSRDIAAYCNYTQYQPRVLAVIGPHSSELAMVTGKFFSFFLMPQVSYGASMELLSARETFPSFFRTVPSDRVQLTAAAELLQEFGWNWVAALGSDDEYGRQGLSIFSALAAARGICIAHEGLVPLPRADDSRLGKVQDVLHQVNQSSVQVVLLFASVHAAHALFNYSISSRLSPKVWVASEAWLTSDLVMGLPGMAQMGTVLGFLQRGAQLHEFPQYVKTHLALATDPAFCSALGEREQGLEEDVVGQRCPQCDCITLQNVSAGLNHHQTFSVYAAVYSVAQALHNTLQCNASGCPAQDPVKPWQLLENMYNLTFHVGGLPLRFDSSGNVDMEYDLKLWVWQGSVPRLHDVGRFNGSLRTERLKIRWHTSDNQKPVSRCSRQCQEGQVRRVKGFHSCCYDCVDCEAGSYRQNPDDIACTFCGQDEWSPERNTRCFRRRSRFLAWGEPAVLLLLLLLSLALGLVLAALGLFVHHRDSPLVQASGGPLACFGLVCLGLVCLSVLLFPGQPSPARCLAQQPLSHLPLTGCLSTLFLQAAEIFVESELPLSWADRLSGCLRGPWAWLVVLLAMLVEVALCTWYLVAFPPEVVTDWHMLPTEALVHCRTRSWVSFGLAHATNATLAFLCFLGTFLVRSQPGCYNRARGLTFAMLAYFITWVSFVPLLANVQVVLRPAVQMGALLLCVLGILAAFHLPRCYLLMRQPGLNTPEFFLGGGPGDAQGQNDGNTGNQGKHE

B1: thaumatin (protein)
chain: ATFEIVNRCSYTVWAAASKGDAALDAGGRQLNSGESWTINVEPGTKGGKIWARTDCYFDDSGSGICKTGDCGGLLRCKRFGRPPTTLAEFSLNQYGKDYIDISNIKGFNVPMDFSPTTRGCRGVRCAADIVGQCPAKLKAPGGGCNDACTVFQTSEYCCTTGKCGPTEYSRFFKRLCPDAFSYVLDKPTTVTCPGSSNYRVTFCPTA
modifications: Eight disulfides
notes: sweet-tasting plant protein, E957

Target: T1, human TAS1R2-WT/TAS1R3-S551N
Assay: Calcium mobilisation assay, TAS1R2-WT with TAS1R3 variant S551N
Type: cell-based
Conditions: for EC50 / Max ΔF/F0: "-": no activation; for Max ΔF/F0: maximal signal amplitude
Source text: The coding sequences for TAS1R2 and TAS1R3 were commercially synthesised, and the human codon was optimised for expression in human cells. The coding sequences of human TAS1R2 and TAS1R3 were subcloned and inserted into the mammalian expression vectors pcDNA6/myc-HisA and pcDNA4/myc-HisA (Invitrogen; Thermo Fisher Scientific; Illkirch, France) between the EcoRI and NotI restriction sites, generating the plasmids pcDNA6-TAS1R2 and pcDNA4-TAS1R3, respectively. To increase protein expression in mammalian cells, an upstream start codon was used, which was a sequence called MAX, corresponding to the QBI SP163 element also described in pcDNA4-HisMax (Invitrogen; Thermo Fisher Scientific; Illkirch, France). To measure the expression level of the receptor by immunohistochemistry, we used the FLAG sequence ([…]) in the C-terminal position, which encodes the FLAG tag epitope. SNP variants of TAS1R2 and TAS1R3 were constructed based on […], respectively, using site-directed mutagenesis (Genewiz; Leipzig, Germany).
The HEK293T cells were kindly provided by Jay P. Slack (Givaudan Flavors Corporation; Cincinnati, OH, USA). HEK293T cells stably transfected with Gα16gust44 [43, 67] were seeded in poly-D-lysine-coated clear-bottom black 96-well plates (0.35 × 10^5 cells/well) in high-glucose DMEM supplemented with 2 mM GlutaMAX, 10% dialysed foetal bovine serum with penicillin/streptomycin and G418 (400 μg/mL) at 37 °C and 6.3% CO2 in a humidified atmosphere as previously reported. […] As a negative control, HEK293T cells were mock-transfected with the empty expression vector. After a further 24 h of incubation, the HEK293T cells were washed with C1 buffer (130 mM NaCl, 5 mM KCl, 10 mM HEPES pH 7.4 and 2 mM CaCl2). The 96-well plates containing the cells were then stimulated with sweet-tasting compounds. […] Different concentration ranges were tested depending on the sweet compound injected. The Ca^2+ changes were expressed as fractional changes in fluorescent light intensity: ΔF/F = (F − F0)/F0, where F was the fluorescent light intensity at each point, and F0 was the value of emitted fluorescent light prior to stimulus application. To calculate dose–response relationships, the changes in fluorescence upon stimulus application were averaged, mock-subtracted and baseline-corrected. The dose–response data obtained were adjusted using a 4-parameter logistic equation. The half-maximal effective concentrations (EC50 values) and maximal signal amplitudes were calculated using SigmaPlot software (version 15.0) (Systat Software; San Jose, CA, USA).
For in vitro calcium mobilisation assay performed on hTAS1R2-SNPs, hTAS1R3-SNPs and mTAS1R3-I60T, 6 to 7 concentrations were tested for each sweet compound, plus buffer alone. All concentration–receptor combinations were measured in duplicate, and each experiment was repeated at least 4 times (8 wells/concentration). Results were expressed for each concentration as ΔF/F mean ± SEM and represented as dose–response curves.

Row | Molecule | R1 = Variant EC50/WT EC50 | EC50 [µM] | Max ΔF/F0
1 | C=C(C)[C@@H]1CC=C(/C=N/O)CC1 [Perillartine, perillartine] | 3.6 | 49.2 ± 13.6 | 0.52 ± 0.04
2 | brazzein (QDKCKKVYENYPVSKCQLANQCNYDCKLDKHARSGECFYDEKRNLQCICDYCEY; ends and bridges not checked; cysteine pairing not given here; UniProt P56552 1-54, looked up) [sweet-tasting protein obtained by recombinant production using the yeast Pichia pastoris] | 21.1 | – | 0.21 ± 0.21
3 | thaumatin | 1.7 | – | 0.25 ± 0.01
4 | C[C@H](CC[C@@H](O[C@@H]1O[C@H](CO[C@@H]2O[C@H](CO)[C@@H](O)[C@H](O)[C@H]2O)[C@@H](O)[C@H](O)[C@H]1O[C@@H]1O[C@H](CO)[C@@H](O)[C@H](O)[C@H]1O)C(C)(C)O)[C@H]1CC[C@@]2(C)[C@@H]3CC=C4[C@@H](CC[C@H](O[C@@H]5O[C@H](CO[C@@H]6O[C@H](CO)[C@@H](O)[C@H](O)[C@H]6O)[C@@H](O)[C@H](O)[C@H]5O)C4(C)C)[C@]3(C)[C@H](O)C[C@]12C [Mogroside V, mogroside V] | 3.6 | – | 0.03
5 | B1 | – | 17.4 ± 2.2 | –
